# Results published in patent US20140273139A1, “Direct Fermentation of Biomass to Fuel Precursors” (Innovative Metabolism Inc., priority 2013, published 2014).
# How the values were obtained:
# [1] = tested on: P. chrysosporium and K. marxianus; experiment: Solid-state fermentation of corn stover by consortium in the presence of carbon monoxide; type: cell-based, Phanerochaete chrysosporium / Kluyveromyces marxianus; details: 90% CO and 10% air, first 27 days
# Protocol: In this example, solvent-producing fermentation was initiated by introduction of a mix of air and CO, a competitive inhibitor of cytochrome c oxidase. Corn stover was prepared as described in Example 7. A mixture of P. chrysosporium conidiospores and mycelia harvested from agar medium, and 1 ml of K. marxianus from an overnight culture in YPD broth were added to the stover. The mixture was transferred to the rotating drum of the solid-state bioreactor under sterile conditions. The bioreactor was sealed and placed in a 44° C. incubator.
# Growth was established under aerobic conditions (10 ml/min of air was flowed through the bioreactor for 17 hours). Fermentation was initiated by flowing a mixture comprised of 90% CO and 10% air through the bioreactor. During the first 27 days productivity peaked at 2.3×10^−5 g solvent/hr/g biomass remaining and yield for the period was 5.7% of biomass consumed (FIG. 8).
# P. chrysosporium [2] = experiment: Solid-state fermentation of corn stover by P. chrysosporium in the presence of carbon monoxide; type: cell-based, Phanerochaete chrysosporium; details: 10% air and 90% CO, through Day 44
# Protocol: In this example solvent fermentation was initiated by introduction of a mix of 10% air and 90% CO. Corn stover was prepared as described in Example 7. P. chrysosporium conidiospores and mycelia harvested from agar medium were added to the stover and the mixture was transferred to the rotating drum of the solid-state bioreactor under sterile conditions. The bioreactor was sealed and placed in a 44° C. incubator. The volume of gas flow remained constant at 10 ml/min for the entire experiment.
# The fermentor was run aerobically for 45 hours to establish growth. Between hour 45 and Day 44 a gas mix comprised of 10% air and 90% CO was flowed through the system. Fungal metabolic activity was restored by flowing air through the system from Day 51-55. From Day 57-65 the fermentation was run anaerobically in the absence of CO. Fungal metabolic activity was again restored by aerobic growth from Day 65-68, and then anaerobic fermentation was continued from Day 68-82.
# P. chrysosporium [3] = experiment: Submerged liquid fermentation under reduced oxygen with the mitochondrial inhibitor rotenone (GC-MS, standard curves); type: cell-based, Phanerochaete chrysosporium
# Protocol: In this experiment P. chrysosporium was grown from conidiospores in submerged liquid culture. The growth medium was Highley's Basal salts [Wymelenberg, A. V., et al., The Phanerochaete chrysosporium secretome: database predictions and initial mass spectrometry peptide identifications in cellulose-grown medium. J Biotechnol, 2005. 118(1): p. 17-34.] supplemented with 0.1% yeast extract (YE) and 2% glucose. Conidiospores were inoculated in 50 ml of liquid medium in a 250 ml Erlenmyer flask which was then capped with a 3-piece fermentation lock to prevent evaporation of volatile products and to allow the culture to incubate in a reduced oxygen environment. The culture was incubated statically.
# A large mass of fungus was produced and remained suspended near the top of the medium. Samples were collected, transferred to glass septum vials and heated to 60° C. Samples were analyzed on a 6890N GC system with a 5975 Mass Selective Detector (Agilent) using a PH Innowax column. […] Standard curves were performed for each solvent. The concentrations in the fermentation broth were determined to be 0.74 mM for acetone, 1.8 mM for isopropanol, and 1.9 mM for ethanol. This experiment provided the first indication that P. chrysosporium was capable of fermenting sugars to acetone and isopropanol.
# P. chrysosporium [4] = experiment: Submerged liquid fermentation in the presence of air and gaseous mitochondrial inhibitor (GC-MS of headspace); type: cell-based, Phanerochaete chrysosporium; details: aerobic culture, NO target concentration 1 μM, 2% glucose, 37° C.
# Protocol: In this experiment P. chrysosporium was grown from conidiospores in submerged liquid culture. The growth medium was Highley's Basal salts [Wymelenberg, A. V., et al., The Phanerochaete chrysosporium secretome: database predictions and initial mass spectrometry peptide identifications in cellulose-grown medium. J Biotechnol, 2005. 118(1): p. 17-34.] supplemented with 0.1% yeast extract (YE) and 2% glucose. Conidiospores were inoculated in liquid medium in 3 neck flasks. The temperature was maintained at 37° C. The cultures were mixed using magnetic stir bars and gasses (air, nitrogen, and air supplemented with nitric oxide (NO)) were bubbled through the medium using stainless steel needles. Fungi were grown: 1) aerobically; 2) anaerobically; and 3) aerobically with NO delivered to a target concentration of 1 μM. Cultures were sampled daily and analyzed using GC-MS (FIG. 3). P. chrysosporium grew rapidly forming large, encapsulated masses of material.
# The identity of the ethanol peak was confirmed by MS analysis. Samples were transferred to glass septum vials and heated to 60° C. A gas-tight syringe was used to sample 50 μl from the headspace. Samples were analyzed on a 6890N GC system with a 5975 Mass Selective Detector (Agilent) using a PH Innowax column.
# [5] = rotenone-treated, reduced oxygen, static culture
molecule,measurement,setting,value
"[C-]#[O+] [CO, carbon monoxide]",solvents produced,[1],Ethanol was the only solvent produced in significant quantities
same,peak productivity,[1]; 44° C.,2.3×10^−5 g solvent/hr/g biomass remaining
same,solvent yield,[1]; 44° C.,5.7 % of biomass consumed
same,acetone share of solvent mix,P. chrysosporium [2],28%
same,ethanol share of solvent mix,P. chrysosporium [2],72%
same,isopropanol share of solvent mix,P. chrysosporium [2],only trace amounts
"C=C(C)[C@H]1Cc2c(ccc3c2O[C@@H]2COc4cc(OC)c(OC)cc4[C@@H]2C3=O)O1 [Rotenone, rotenone]",solvents produced in the presence of the inhibitor,"P. chrysosporium [3]; liquid culture, oxygen-limited conditions, glucose","production of acetone, isopropanol and ethanol"
same,acetone concentration in the fermentation broth,P. chrysosporium [3]; [5],0.74 mM
same,ethanol concentration in the fermentation broth,P. chrysosporium [3]; [5],1.9 mM
same,isopropanol concentration in the fermentation broth,P. chrysosporium [3]; [5],1.8 mM
nitric oxide,ethanol production by the culture,P. chrysosporium [4],appeared to enable ethanol production in the presence of dissolved oxygen
